This note sets out measurements from patent US12612388B2, “Receptor-interacting protein 1 inhibitors including piperazine heterocyclic amide ureas” (SIRONAX LTD., priority 2020, dated 2026).

pEC50: −log10 of the molar value.

For this assay, the system named is HT-29 cells. The experiment in a line: Cellular RIP1 inhibitory activity: necroptosis of HT-29 cells induced by TNF-α/SMAC mimetic/zVAD-FMK, CellTiter-Glo viability. The assay is classed as cell-based. Conditions: Homo sapiens; HT-29 cells; TNF-α 10 ng/ml, SMAC mimetic 6 μM, zVAD-FMK 10 μM; 20 hours; geometric mean, 10 points, duplicates; read-out: EC50 (Cell activity; Necrosis or Necroptosis Inhibitory Activity). The procedure:
In Table 2, activity is provided as follows: +++=0.1 nM≤EC50<100 nM; ++=100 nM≤EC50K<1000 nM; +=1000 nM≤EC50K<10000 nM.
Compounds 1-67 (denoted as Compound Nos. 1 through 67 in Table 1) of the disclosure were tested for binding and cellular RIP1 inhibitory activity following the experimental procedures described below.
Cell line: HT-29 (ATCC® HTB-38™)
Culture medium: McCOY's 5A, Gibco, Cat No. 16600-082
DMSO: Sigma, Cat No. 67-68-5, 1 L
Assay plate: Corning #3903
Compound dilution plate: Corning #3357
Inducers: TNFα, GenScript, Cat No. Z01001-50,
SmacM, Cat. No., HY-15989, MedChemExpress (MCE)
Z_VAD FMK, TargetMol, T6013
Cell Titer-Glo® Luminescent Cell Viability Assay Kit: Promega, Cat No. G7573
1. HT-29 cells were checked every day to make sure that they were healthy and growing as expected. They were subjected to sub-culturing when they were approximately 80% confluent.
2. The culture medium, McCOY's 5A medium (Gibco, Cat No. 16600-082) with 10% fetal bovine serum or FBS (Gibco, Cat No. 10099-141C), was pre-warmed in a 37° C. water bath for at least 30 min.
3. When the cells had reached a desired level of confluency of 80% in a T75 flask, the medium was aspirated, and the cells were washed with warm phosphate buffered saline or PBS two times.
4. 2-3 ml fresh warm trypsin (Gibco, Cat No. 25200-056) solution was added to the washed cells. The flask with the cells was transferred to a 37° C. incubator.
5. After 5 minutes, the side of the flask was tapped, and the flask was examined under a microscope for detachment of the cells to the flask. If necessary, the cells were kept in the incubator for an additional 5-10 minutes, with occasional tapping, until lifting was complete.
6. The trypsin reaction was neutralized by transferring 6-9 ml cell culture medium to sterile 15 ml conical tubes, and by centrifuging the cell culture at 300×g for 7 minutes to pellet the cells (supernatant decanted).
7. The cells were resuspended in fresh cell culture medium and the cell counting was performed using a hemocytometer.
8. 100 μl of the resuspended cell culture medium containing ˜5,000 cells were transferred into each well of the sterile 96-well cell culture plate (Corning 3903) and cultured overnight at 37° C. with 5% CO2.
Compound Titration and Treatment
1. All test compounds were dissolved in DMSO (Dimethyl sulfoxide) to create a 20 mM stock.
2. 3 μl of each compound 20 mM stock was mixed with 27 μl DMSO, and the compound solution was further diluted at a titration ratio of 1:3 (20 μl compound solution+40 μl DMSO) till the 10 points end.
3. All culture medium was removed from assay plates filled with HT-29 cell cultures. The cells were then washed with 1 PBS, and resuspended in fresh, FBS-free McCOY's 5A medium containing a cocktail of TNF-α (10 ng/ml), a SMAC mimetic compound (6 μM) and Z-VAD-fluoromethylketone or zVAD-FMK (10 μM) to stimulate the HT-29 cells to increase RIP1 kinase levels and necroptosis.
4. 0.5 μL of the diluted compound solution was added to the corresponding 96-well assay plates.
5. The assay plates were incubated for 20 hours at 37° C. with 5% CO2.
1. The CellTiter-Glo® Luminescent Cell Viability Assay was employed to detect the ATP levels of viable HT-29 cells.
2. The CellTiter-Glo® buffer and the lyophilized substrate were equilibrated to room temperature prior to use.
3. The CellTiter-Glo® substrate was resuspended with CellTiter-Glo® buffer, then mixed by gently vortexing to obtain a homogeneous solution.
4. 20 μl the enzyme/substrate mixture was transferred by multi-channel pipetting into 96-well assay plates.
5. The assay plates were placed on an orbital shaker and the contents were shaken for 3 minutes to induce cell lysis.
6. The assay plates were incubated at room temperature for 10 minutes to stabilize the luminescent signal.
7. The luminescence signals were read and recorded with EnVision.
8. The geometric mean EC50 values were calculated from 10 points response dose with duplicates. […]
In general, pEC50 refers to −log10 of the EC50, conventionally taken in molar units. Consider `CC(C)OC1CN(C(=O)c2nc(N3CCN(C(=O)N4N=CC[C@H]4c4cc(F)cc(F)c4)CC3)ncc2F)C1` [Compound 24, (S)-(5-(3,5-difluorophenyl)-4,5-dihydro-1H-pyrazol-1-yl)(4-(5-fluoro-4-(3-isopropoxyazetidine-1-carbonyl)pyrimidin-2-yl)piperazin-1-yl)methanone], for which the pEC50 is 7.00 to 10.00.

As to `COC1CN(C(=O)c2nc(N3CCN(C(=O)N4N=CC[C@H]4c4cc(F)cc(C#N)c4)CC3)ncc2F)C1` [Compound 51, (S)-3-fluoro-5-(1-(4-(5-fluoro-4-(3-methoxyazetidine-1-carbonyl)pyrimidin-2-yl)piperazine-1-carbonyl)-4,5-dihydro-1H-pyrazol-5-yl)benzonitrile], the pEC50 is 7.00 to 10.00.

In the case of `NC(=O)c1cc(N2CCN(C(=O)N3N=CC[C@H]3c3cc(F)cc(F)c3)CC2)c(F)cn1` [Compound 67, (S)-4-(4-(5-(3,5-difluorophenyl)-4,5-dihydro-1H-pyrazole-1-carbonyl)piperazin-1-yl)-5-fluoropicolinamide], the pEC50 is 6.00 to 7.00.

Consider `NC(=O)C1CN(C(=O)c2nc(N3CCN(C(=O)N4N=CC[C@H]4c4cc(F)cc(F)c4)CC3)ncc2F)C1` [Compound 30, (S)-1-(2-(4-(5-(3,5-difluorophenyl)-4,5-dihydro-1H-pyrazole-1-carbonyl)piperazin-1-yl)-5-fluoropyrimidine-4-carbonyl)azetidine-3-carboxamide], for which the negative-log EC50 (pEC50) was 7.00 to 10.00.

In the case of `N#CCC1CN(C(=O)c2nc(N3CCN(C(=O)N4N=CC[C@H]4c4cc(F)cc(F)c4)CC3)ncc2F)C1` [Compound 58, (S)-2-(1-(2-(4-(5-(3,5-difluorophenyl)-4,5-dihydro-1H-pyrazole-1-carbonyl)piperazin-1-yl)-5-fluoropyrimidine-4-carbonyl)azetidin-3-yl)acetonitrile], the pEC50 is 7.00 to 10.00.

On to `CCN(O)C(=O)c1nc(N2CCN(C(=O)N3N=CC[C@H]3c3cc(F)cc(F)c3)CC2)ncc1F` [Compound 11, (S)-2-(4-(5-(3,5-difluorophenyl)-4,5-dihydro-1H-pyrazole-1-carbonyl)piperazin-1-yl)-N-ethyl-5-fluoro-N-hydroxypyrimidine-4-carboxamide], for which the pEC50 is 7.00 to 10.00.

With `C=C1CN(C(=O)c2nc(N3CCN(C(=O)N4N=CC[C@H]4c4cc(F)cc(F)c4)CC3)ncc2F)C1` [Compound 55, (S)-(5-(3,5-difluorophenyl)-4,5-dihydro-1H-pyrazol-1-yl)(4-(5-fluoro-4-(3-methyleneazetidine-1-carbonyl)pyrimidin-2-yl)piperazin-1-yl)methanone], the pEC50 is 7.00 to 10.00.

`COc1cnc(N2CCN(C(=O)N3N=CC[C@H]3c3cc(F)cc(F)c3)CC2)nc1C(N)=O` [Compound 62, (S)-2-(4-(5-(3,5-difluorophenyl)-4,5-dihydro-1H-pyrazole-1-carbonyl)piperazin-1-yl)-5-methoxypyrimidine-4-carboxamide]: the pEC50 was 6.00 to 7.00.

For `CCOC(=O)c1nc(N2CCN(C(=O)N3N=CC[C@H]3c3cc(F)cc(F)c3)CC2)ncc1F` [Compound 47], the pEC50 is 7.00 to 10.00.

Take `N#Cc1cc(F)cc([C@@H]2CC=NN2C(=O)N2CCN(c3ncc(F)c(C(=O)N4CC(OCC5CC5)C4)n3)CC2)c1` [Compound 59, (S)-3-(1-(4-(4-(3-(cyclopropylmethoxy)azetidine-1-carbonyl)-5-fluoropyrimidin-2-yl)piperazine-1-carbonyl)-4,5-dihydro-1H-pyrazol-5-yl)-5-fluorobenzo nitrile]: the pEC50 is 7.00 to 10.00.

Consider `CN(O)C(=O)c1nc(N2CCN(C(=O)N3N=CC[C@H]3c3cc(F)cc(F)c3)CC2)ncc1F` [Compound 20, (S)-2-(4-(5-(3,5-difluorophenyl)-4,5-dihydro-1H-pyrazole-1-carbonyl)piperazin-1-yl)-5-fluoro-N-hydroxy-N-methylpyrimidine-4-carboxamide], for which the pEC50 is 7.00 to 10.00.

With `COC1CN(C(=O)c2nc(N3CCN(C(=O)N4N=CC[C@H]4c4cc(F)cc(F)c4)CC3)ncc2F)C1` [Compound 21, (S)-(5-(3,5-difluorophenyl)-4,5-dihydro-1H-pyrazol-1-yl)(4-(5-fluoro-4-(3-methoxyazetidine-1-carbonyl)pyrimidin-2-yl)piperazin-1-yl)methanone], the pEC50 was 7.00 to 10.00.

Take `CNC(=O)c1ccnc(N2CCN(C(=O)N3N=CC[C@H]3c3cc(F)cc(F)c3)CC2)n1` [Compound 46, (S)-2-(4-(5-(3,5-difluorophenyl)-4,5-dihydro-1H-pyrazole-1-carbonyl)piperazin-1-yl)-N-methylpyrimidine-4-carboxamide]: the pEC50 was 7.00 to 10.00.

In the case of `NC(=O)c1nc(N2CCN(C(=O)N3N=CC[C@H]3c3cc(F)cc(F)c3)CC2)ncc1F` [Compound 48, (S)-2-(4-(5-(3,5-difluorophenyl)-4,5-dihydro-1H-pyrazole-1-carbonyl)piperazin-1-yl)-5-fluoropyrimidine-4-carboxamide], the pEC50 is 7.00 to 10.00.

For the compound `O=C(c1nc(N2CCN(C(=O)N3N=CC[C@H]3c3cc(F)cc(F)c3)CC2)ncc1F)N1CC2(CCC2)C1` [Compound 29, (S)-(5-(3,5-difluorophenyl)-4,5-dihydro-1H-pyrazol-1-yl)(4-(5-fluoro-4-(2-azaspiro[3.3]heptane-2-carbonyl)pyrimidin-2-yl)piperazin-1-yl)methanone], the pEC50 is 7.00 to 10.00.

For `CN(C)C1CN(C(=O)c2nc(N3CCN(C(=O)N4N=CC[C@H]4c4cc(F)cc(F)c4)CC3)ncc2F)C1` [Compound 33, (S)-(5-(3,5-difluorophenyl)-4,5-dihydro-1H-pyrazol-1-yl)(4-(4-(3-(dimethylamino)azetidine-1-carbonyl)-5-fluoropyrimidin-2-yl)piperazin-1-yl)methanone], the negative-log EC50 (pEC50) was 7.00 to 10.00.

On to `CN(C)[C@@H]1CCN(C(=O)c2nc(N3CCN(C(=O)N4N=CC[C@H]4c4cc(F)cc(F)c4)CC3)ncc2F)C1` [Compound 32, ((S)-5-(3,5-difluorophenyl)-4,5-dihydro-1H-pyrazol-1-yl)(4-(4-((R)-3-(dimethylamino)pyrrolidine-1-carbonyl)-5-fluoropyrimidin-2-yl)piperazin-1-yl)methanone], for which the pEC50 was 7.00 to 10.00.

In the case of `CN(C)CC1CN(C(=O)c2nc(N3CCN(C(=O)N4N=CC[C@H]4c4cc(F)cc(F)c4)CC3)ncc2F)C1` [Compound 28, (S)-(5-(3,5-difluorophenyl)-4,5-dihydro-1H-pyrazol-1-yl)(4-(4-(3-((dimethylamino)methyl)azetidine-1-carbonyl)-5-fluoropyrimidin-2-yl)piperazin-1-yl) methanone], the pEC50 is 7.00 to 10.00.

On to `O=C(c1nc(N2CCN(C(=O)N3N=CC[C@H]3c3cc(F)cc(F)c3)CC2)ncc1F)N1CCCC1` [Compound 8, (S)-(5-(3,5-difluorophenyl)-4,5-dihydro-1H-pyrazol-1-yl)(4-(5-fluoro-4-(pyrrolidine-1-carbonyl)pyrimidin-2-yl)piperazin-1-yl)methanone], for which the pEC50 was 7.00 to 10.00.

As to `O=C(c1nc(N2CCN(C(=O)N3N=CC[C@H]3c3cc(F)cc(F)c3)CC2)ncc1F)N1CC=CC1` [Compound 61, (S)-(5-(3,5-difluorophenyl)-4,5-dihydro-1H-pyrazol-1-yl)(4-(4-(2,5-dihydro-1H-pyrrole-1-carbonyl)-5-fluoropyrimidin-2-yl)piperazin-1-yl)methanone], the pEC50 was 7.00 to 10.00.
